Results as given in patent publication US11752169B2, “Treatment of pain with polysulfated polysaccharides” (PARADIGM BIOPHARMACEUTICALS LTD., priority 2018, dated 2023).

Key:
[1] = system: IL-6 mRNA; test: real-time RT-PCR for IL-6 mRNA in KOA osteocyte-like cultures; type: cell-based, human; details: PPS 1 μg/mL + rhTNFα 1 ng/mL, 48 h (FIG. 17)
Procedure: (§1) Cryopreserved cells from each donor (all at passage 0 or 1) were thawed and cultured for 10d in T75 cm^2 tissue culture flasks. Once confluent, cells were removed by collagenase/dispase digestion, washed by centrifugation, counted and adjusted to 5×10^5 cells/mL. Cells were then seeded into either 12-well tissue culture trays or into 8-well chamber slides, at 1×10^5 and 2×10^4 cells/well, respectively. After 24 h, media were replaced with osteogenic differentiation medium, consisting of αMEM, 5% v/v foetal calf serum (FCS), 1.8 mM potassium dihydrogen phosphate (KH2PO4), 100 μM Ascorbate-2-phosphate (As2P), 10 mM HEPES, 10^−8 M Dexamethasone and 0.2 mM L-Glutamine. During the differentiation process, samples were collected at days 3, 14 and 28 in Trizol reagent for total RNA preparation and gene expression analysis (see below). […]
(§2) Following three days of pre-treatment of osteocyte-like cultures with PPS and a further 48 h treatment period, total RNA was isolated for the purposes of analysing gene expression using real-time RT-PCR. While the quality of the RNA isolated from all cultures appeared to be high, as adjudged by Nanodrop micro-spectrophotometry showing the ratio of absorbance at 260 nm/280 nm generally being between 1.9 and 2.0, there was a consistent inability to generate complementary DNA (cDNA) from any samples exposed to 5 or 50 μg/mL PPS, except in one or two samples. […]

[2] = system: COX2 mRNA; test: real-time RT-PCR for COX2 mRNA in KOA osteocyte-like cultures; type: cell-based, human
Procedure: as §1, §2

[3] = system: NGF; test: human NGF ELISA of culture supernatants of osteocyte-like cultures; type: cell-based; details: KOA or NOF osteocyte-like cultures, PPS 1, 5 or 50 μg/mL for 72 h vs untreated
Description: In order to maximise the clinical relevance of the findings from this study, the effects of PPS were to be tested on osteocyte-like cultures derived by differentiation in vitro for a period of 28 days from cells isolated from the subchondral bone of the proximal tibia of three patients with advanced knee OA who underwent total knee arthroplasty (TKA) surgery (KOA: Group 1). As a comparator group, cells isolated from the proximal femur of three patients who underwent total hip arthroplasty (THA) for neck of femur fracture (NOF: Group 2), were similarly differentiated and tested. The gender of all donors was female, and group were age matched, with the mean age of KOA being 77.0±8.5 years and that of the NOF group being 77.7±5.5 years (p=0.91).
Cryopreserved cells from each donor (all at passage 0 or 1) were thawed and cultured for 10d in T75 cm^2 tissue culture flasks. Once confluent, cells were removed by collagenase/dispase digestion, washed by centrifugation, counted and adjusted to 5×10^5 cells/mL. Cells were then seeded into either 12-well tissue culture trays or into 8-well chamber slides, at 1×10^5 and 2×10^4 cells/well, respectively. […]

[4] = system: NGF mRNA; test: real-time RT-PCR for NGF mRNA in osteocyte-like cultures; type: cell-based, human
Procedure: (§3) FIG. 23. Effects of combinations of rhTNF and PPS on NGF gene expression in osteocyte-like cultures. Human differentiated osteocyte-like cultures were either untreated or pretreated with PPS (0.1 or 1.0 μg/mL) for 24 h, then with or without rhTNFα (1 ng/mL) for a further 48 h, and then real-time RT-PCR was performed for NGF mRNA. Data are mean+SD of triplicate real-time RT-PCR reactions normalised to the mRNA expression of the housekeeping gene ACTB.
as §3, with “28.” for “23.”
Cryopreserved cells from each donor (all at passage 0 or 1) were thawed and cultured for 10d in T75 cm^2 tissue culture flasks. Once confluent, cells were removed by collagenase/dispase digestion, washed by centrifugation, counted and adjusted to 5×10^5 cells/mL. Cells were then seeded into either 12-well tissue culture trays or into 8-well chamber slides, at 1×10^5 and 2×10^4 cells/well, respectively. After 24 h, media were replaced with osteogenic differentiation medium, consisting of αMEM, 5% v/v foetal calf serum (FCS), 1.8 mM potassium dihydrogen phosphate (KH2PO4), 100 μM Ascorbate-2-phosphate (As2P), 10 mM HEPES, 10^−8 M Dexamethasone and 0.2 mM L-Glutamine. During the differentiation process, samples were collected at days 3, 14 and 28 in Trizol reagent for total RNA preparation and gene expression analysis (see below). Cultures seeded into chamber slides were examined for in vitro mineralisation using the Alizarin Red staining technique, as previously described.
PPS was manufactured by bene pharmaChem GmbH & Co. KG, Geretstried, Germany. This was dissolved in sterile PBS as a stock solution at 1.0 mg/mL. Differentiated cells were either untreated or pre-treated with final concentrations of PPS at 1, 5 or 50 μg/mL in culture medium for 72 h. The tested doses of PPS were based on the effective and maximally active levels published in a previous study. Media were then replaced with the same concentrations of PPS with or without the addition of recombinant human (rh) TNFα (1 ng/mL) and then cultured for a further 48 h. Culture supernatants were collected and total RNA and cDNA prepared, as described below. This generated 8 conditions (Untreated, TNF, PPS1, PPS5, PPS50, TNF+PPS1, TNF+PPS5, TNF+PPS50) from 6 donors.
Total RNA was prepared from Trizol lysates, according to the manufacturer's instructions, with the exception that due to evidence for PPS interference in the generation of assayable cDNA, RNA precipitates were washed 3 times in 75% ethanol instead of the usual single wash step, in an attempt to remove residual PPS. RNA preparations were tested for yield and purity using a Nanodrop microvolume spectrophotometer (Thermo Fisher). One microgram of RNA from each sample was reverse transcribed using a Superscript™ II kit (Thermo Fisher), as per manufacturer's instructions. Real-time RT-PCR was performed for genes including Nerve Growth Factor (NGF), its receptors NTRK1 (TRKA) and NGFR (P75NTR), MMP13, Cyclooxygenase-2 (COX-2), Interleukin-6 (IL-6) RANKL, OPG, OCN, DMP1 and SOST, relative to housekeeping gene (18S, ACTB) expression. […]

Sodium Pentosan Polysulfate [PPS]
effect of rhTNFα on IL-6 mRNA expression [1]: inhibited
COX2 mRNA expression, PPS alone ([2]; PPS 1 μg/mL (FIG. 18)): completely inhibited
COX2 mRNA expression, PPS in combination with rhTNFα ([2]; PPS 1 μg/mL + rhTNFα 1 ng/mL (FIG. 18)): completely inhibited
secreted levels of mature NGF protein (ELISA) [3]: increased
NGF mRNA levels, PPS in combination with rhTNFα ([4]; KOA1 and KOA2 cultures, PPS 1 μg/mL + rhTNFα 1 ng/mL, 48 h, relative to 18S rRNA (FIG. 16)): strongly suppressed
NGF mRNA levels, PPS alone ([4]; KOA1 and KOA2 cultures, PPS 1 μg/mL, 72 h pre-treatment + 48 h, relative to 18S rRNA (FIG. 16)): strongly suppressed
NGF expression (mRNA) in the presence of TNFα ([4]; PPS at 1 μg/mL, 24 h pre-treatment, rhTNFα 1 ng/mL 48 h, normalised to ACTB (FIG. 23)): significantly reduced
NGF expression (mRNA) in the presence of TNFα ([4]; PPS at 1 mg/mL (so in the source), FIG. 28, normalised to ACTB): significantly reduced
basal NGF mRNA levels ([4]; PPS at both 0.1 and 1 μg/mL, 24 h pre-treatment + 48 h, normalised to ACTB (FIG. 23)): no apparent effect
